Laboratory results published in patent publication US20260108483A1, “METHODS AND COMPOSITIONS FOR PREVENTING THE PROGRESSION OF DIABETIC RETINOPATHY AND RELATED CONDITIONS” (Opus Genetics, Inc., priority 2023, published 2026).

How the values were obtained:
Type in all cases: in vivo, human
[1] = Clinical study safety: aspartate aminotransferase in subjects' blood; settings: combined placebo + Compound 1 patients; for Mean Concentration of Aspartate Aminotransferase in Subjects' Blood: Baseline 19.7
Excerpt: (§1) The study was configured as a placebo-controlled, double-masked, randomized, Phase 2 study in approximately 100 subjects with moderately severe to severe NPDR (diabetic retinopathy severity score [DRSS] Level 47 or 53, see FIG. 1) or mild PDR (DRSS Level 61), evaluating safety and efficacy following administration of Compound 1 twice daily for 24 weeks. The study was configured for a 1:1 randomization (placebo: Compound 1). Randomization was stratified by level of disease severity (NPDR or PDR). Subjects with mild PDR were capped at 20% for each arm. Efficacy evaluations at 12 and/or 24 weeks included DRSS, center-involved diabetic macular edema (DME), moderate PDR or PDR-related adverse events (AEs), best-corrected visual acuity (BCVA), and central subfield thickness (CST). Further experimental procedures and results are described below.
(§2) At the Qualification/Baseline (Visit 2, Day 1): • The subject was randomized into the study. • Study medication was dispensed in accordance with the subjects randomized treatment arm. • Blood samples were drawn pre-dose for baseline levels and on Visit 9 (Week 24) for exploratory biomarker processing (i.e., cytokine and Ref-1 levels) to evaluate pharmacodynamic properties. • Subjects were instructed to administer their study medication (Compound 1 or placebo) each day, with 3 tablets every morning and 2 tablets every evening. Study medication was to be taken at approximately the same time each day and may be taken with or without food.
(§3) At the Second Treatment Visit (Visit 6, Week 12±2 Days), subjects were to return to the site for the following series of safety and efficacy assessments: drug accountability, concomitant medications, urine pregnancy test (only for women of childbearing potential), HR/BP/vital signs, BCVA (ETDRS), DRSS, CST (SD-OCT), blood draw for PK, blood chemistry, blood hematology, biomicroscopy, ophthalmoscopy, IOP, eGFR, and AEs. Following the completion of the assessments, used medication kits were collected for accountability (by counting the number of unused tablets), and new study medication kits dispensed.
(§4) At the Third Treatment Visit (Visit 9, Week 24±2 Days), subjects were to return to the site for the following series of safety and efficacy assessments: drug accountability, concomitant medications, urine pregnancy test (only for women of childbearing potential), physical examination, HR/BP/vital signs, BCVA (ETDRS), DRSS, CST (SD-OCT), blood chemistry, blood hematology, biomicroscopy, ophthalmoscopy, IOP, eGFR, AEs, and blood draw for exploratory biomarkers (ELISA, cytokine panel, comprehensive metabolic panel). Visit 9 (Week 24) was the end of the treatment period. Study medication was returned for accountability (by counting the number of unused tablets), and no further study medication dispensed.
(§5) Safety endpoints include: • Incidence and severity of systemic and ocular AEs, • Change from baseline in body system assessments, • Change from baseline in vital sign measurements, • Change from baseline in clinical laboratory assay results (blood chemistry, hematology), • Change from baseline in intraocular pressure (IOP), • Change from baseline in slit-lamp examination parameters, • Change from baseline in dilated funduscopic examination parameters, • Percent of subjects with a decrease of ≥10 letters in BCVA compared to baseline at Week 12 and Week 24, • Percent of subjects progressing to center-involved DME (eligible for rescue treatment at Week 12 and Week 24), • Percent of subjects with a worsening in DRSS of ≥2 steps in the study eye at Week 12 and Week 24, • Percent of subjects developing anterior segment neovascularization at Week 12 and Week 24, • Percent of subjects rescued (intravitreal anti-VEGF injection, laser PRP, focal/grid laser treatment, or surgery [vitrectomy]) at the discretion of the Investigator at Week 12 and Week 24, and • Change from baseline in estimated glomerular filtration rate (eGFR) at Week 12 and Week 24. […]

[2] = Clinical study safety: alanine aminotransferase in subjects' blood; settings: combined placebo + Compound 1 patients; for Mean Concentration of Alanine Aminotransferase in Subjects' Blood: Baseline 22.4
Excerpt: as §1, §2, §3, §4, §5

[3] = Clinical study safety: glomerular filtration rate; settings: combined placebo + Compound 1 patients; for Mean Glomerular Filtration Rate: Baseline 92.53
Excerpt: as §1, §2, §3, §4, §5

CCCCCCCCC/C(=C\C1=C(C)C(=O)C(OC)=C(OC)C1=O)C(=O)O [Compound 1, (E)-2-((4,5-dimethoxy-2-methyl-3,6-dioxocyclohexa-1,4-dien-1-yl)methylene)undecanoic acid]
Mean Concentration of Aspartate Aminotransferase in Subjects' Blood ([1]; Week 12, 53 subjects): 19.2 IU/L | Mean Concentration of Aspartate Aminotransferase in Subjects' Blood ([1]; Week 24, 24 subjects): 17.5 IU/L | change in mean concentration of aspartate aminotransferase relative to Baseline ([1]; week 12, 50 subjects): −0.5 IU/L | reduction in mean concentration of aspartate aminotransferase relative to Baseline ([1]; week 12, 50 subjects): 3% | change in mean concentration of aspartate aminotransferase relative to Baseline ([1]; week 24, 22 subjects): −1.8 IU/L | reduction in mean concentration of aspartate aminotransferase relative to Baseline ([1]; week 24, 22 subjects): 9% | Mean Concentration of Alanine Aminotransferase in Subjects' Blood ([2]; Week 12, 53 subjects): 21.6 IU/L | Mean Concentration of Alanine Aminotransferase in Subjects' Blood ([2]; Week 24, 24 subjects): 20.4 IU/L | change in mean concentration of alanine aminotransferase relative to Baseline ([2]; week 12, 50 subjects): −0.8 IU/L | reduction in mean concentration of alanine aminotransferase relative to Baseline ([2]; week 12, 50 subjects): 3.6% | change in mean concentration of alanine aminotransferase relative to Baseline ([2]; week 24, 22 subjects): −2.1 IU/L | reduction in mean concentration of alanine aminotransferase relative to Baseline ([2]; week 24, 22 subjects): 9.4% | Mean Glomerular Filtration Rate ([3]; Week 12, 52 subjects): 83.85 mL/min/1.73 m^2 | Mean Glomerular Filtration Rate ([3]; Week 24, 24 subjects): 77.7 mL/min/1.73 m^2 | change in mean glomerular filtrate rate relative to Baseline ([3]; week 12, 47 subjects): −2.24 mL/min/1.73 m^2 | reduction in mean glomerular filtrate rate relative to Baseline ([3]; week 12, 47 subjects): 2% | change in mean glomerular filtrate rate relative to Baseline ([3]; week 24, 21 subjects): −9.84 mL/min/1.73 m^2 | reduction in mean glomerular filtrate rate relative to Baseline ([3]; week 24, 21 subjects): 11%
